# Results as given in publication PMC5303825, “The ancient CYP716 family is a major contributor to the diversification of eudicot triterpenoid biosynthesis” (Nature Communications, 2017).
# Assays:
# Type in all cases: cell-based
# [1] = target: T1, CYP716A113v1 (Aquilegia coerulea, UniProt A0A1I9Q601); assay: GC-MS of products in spent medium of engineered yeast; details: co-expressed SlCAS and MTR1; putative hydroxy-cycloartenol product
# T1 construct: full-length ORF from cDNA, expressed in Saccharomyces cerevisiae with tomato SlCAS and M. truncatula reductase MTR1
# T1 sequence (A0A1I9Q601 1-485): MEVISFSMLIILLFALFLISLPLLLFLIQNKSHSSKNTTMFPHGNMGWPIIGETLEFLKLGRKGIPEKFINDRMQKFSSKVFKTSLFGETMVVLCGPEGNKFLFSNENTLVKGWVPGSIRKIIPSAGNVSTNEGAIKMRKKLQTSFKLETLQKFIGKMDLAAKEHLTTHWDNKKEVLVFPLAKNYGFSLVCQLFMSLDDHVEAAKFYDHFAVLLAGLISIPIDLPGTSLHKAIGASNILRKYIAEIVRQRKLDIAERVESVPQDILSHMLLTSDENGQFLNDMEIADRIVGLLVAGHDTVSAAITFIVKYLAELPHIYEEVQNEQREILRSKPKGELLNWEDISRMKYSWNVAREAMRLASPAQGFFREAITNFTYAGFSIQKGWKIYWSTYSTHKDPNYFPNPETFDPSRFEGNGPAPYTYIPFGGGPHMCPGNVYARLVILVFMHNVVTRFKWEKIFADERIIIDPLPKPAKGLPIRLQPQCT
# [2] = target: T2, CYP716E41 (Centella asiatica, UniProt A0A1I9Q5Y6); assay: as above; details: co-expressed GgBAS, CYP716A83 and MTR1; putative product 6β-hydroxy oleanolic acid
# T2 construct: full-length ORF from cDNA library, expressed in Saccharomyces cerevisiae with GgBAS, CYP716A83 and M. truncatula reductase MTR1
# T2 sequence (A0A1I9Q5Y6 1-477): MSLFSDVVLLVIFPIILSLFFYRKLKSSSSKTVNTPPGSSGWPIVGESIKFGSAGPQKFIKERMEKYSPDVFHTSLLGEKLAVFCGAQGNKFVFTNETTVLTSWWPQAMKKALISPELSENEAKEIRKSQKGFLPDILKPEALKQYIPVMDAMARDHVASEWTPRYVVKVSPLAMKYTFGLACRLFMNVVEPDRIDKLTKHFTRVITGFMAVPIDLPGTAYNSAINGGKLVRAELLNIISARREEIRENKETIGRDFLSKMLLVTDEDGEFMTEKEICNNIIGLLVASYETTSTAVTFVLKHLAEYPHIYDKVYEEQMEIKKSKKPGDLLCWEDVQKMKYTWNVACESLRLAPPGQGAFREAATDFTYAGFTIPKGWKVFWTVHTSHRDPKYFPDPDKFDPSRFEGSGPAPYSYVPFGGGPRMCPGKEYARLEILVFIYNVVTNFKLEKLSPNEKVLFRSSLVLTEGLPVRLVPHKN
# [3] = target: T3, CYP716C11 (Centella asiatica, UniProt A0A1I9Q5Y7); assay: as above; details: co-expressed GgBAS, CYP716A83 and MTR1; product maslinic acid
# T3 construct: gene MAA45; full-length ORF from cDNA library, expressed in Saccharomyces cerevisiae with GgBAS (or CaDDS), CYP716A83 and M. truncatula reductase MTR1; T2A polyprotein CYP716A83-CYP716C11
# T3 sequence (A0A1I9Q5Y7 1-475): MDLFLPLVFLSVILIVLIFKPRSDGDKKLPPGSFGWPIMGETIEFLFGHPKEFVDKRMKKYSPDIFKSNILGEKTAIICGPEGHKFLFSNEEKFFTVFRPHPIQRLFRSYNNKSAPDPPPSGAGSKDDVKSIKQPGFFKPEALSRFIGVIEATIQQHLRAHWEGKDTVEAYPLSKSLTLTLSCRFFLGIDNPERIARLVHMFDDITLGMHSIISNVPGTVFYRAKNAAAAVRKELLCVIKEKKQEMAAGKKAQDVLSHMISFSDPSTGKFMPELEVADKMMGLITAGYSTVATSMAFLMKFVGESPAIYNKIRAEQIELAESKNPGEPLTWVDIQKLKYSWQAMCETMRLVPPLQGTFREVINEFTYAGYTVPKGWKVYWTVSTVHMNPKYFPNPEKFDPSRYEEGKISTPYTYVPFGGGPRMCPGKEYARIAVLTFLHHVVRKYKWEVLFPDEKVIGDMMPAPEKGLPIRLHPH
# [4] = target: T4, CYP716A83 (Centella asiatica, UniProt A0A1I9Q5Y4); assay: as above
# T4 construct: full-length ORF from cDNA library, expressed in Saccharomyces cerevisiae with GgBAS (or CaDDS) and M. truncatula reductase MTR1; T2A polyprotein with CYP716C11 in some strains
# [5] = target: T5, CYP716A140 (Platycodon grandiflorus, UniProt A0A1I9Q5Y8); assay: as above; details: co-expressed GgBAS and MTR1; products of C-28 oxidation: erythrodiol, oleanolic acid
# T5 construct: full-length ORF (RACE), expressed in Saccharomyces cerevisiae with GgBAS and M. truncatula reductase MTR1
# T5 sequence (A0A1I9Q5Y8 1-479): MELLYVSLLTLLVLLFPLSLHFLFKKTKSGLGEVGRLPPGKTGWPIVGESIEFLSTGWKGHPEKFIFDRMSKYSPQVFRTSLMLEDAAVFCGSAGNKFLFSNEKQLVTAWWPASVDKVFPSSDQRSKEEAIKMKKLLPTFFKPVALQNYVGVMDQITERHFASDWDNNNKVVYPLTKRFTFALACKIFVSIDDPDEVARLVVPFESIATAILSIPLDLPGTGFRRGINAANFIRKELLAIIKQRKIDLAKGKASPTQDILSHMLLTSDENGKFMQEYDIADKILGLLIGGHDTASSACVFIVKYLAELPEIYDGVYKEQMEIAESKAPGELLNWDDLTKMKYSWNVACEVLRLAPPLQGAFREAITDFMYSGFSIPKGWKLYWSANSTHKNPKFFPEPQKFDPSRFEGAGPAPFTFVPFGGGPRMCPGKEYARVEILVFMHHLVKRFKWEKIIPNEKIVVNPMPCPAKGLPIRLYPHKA
# [6] = target: T6, CYP716A141 (Platycodon grandiflorus, UniProt A0A1I9Q5Z0); assay: GC-MS of engineered yeast medium; product NMR; details: co-expressed GgBAS and MTR1; product 16β-hydroxy β-amyrin (minor erythrodiol, oleanolic acid)
# T6 construct: full-length ORF (RACE), expressed in Saccharomyces cerevisiae with GgBAS and M. truncatula reductase MTR1; b33 once misprints C. asiatica
# T6 sequence (A0A1I9Q5Z0 1-481): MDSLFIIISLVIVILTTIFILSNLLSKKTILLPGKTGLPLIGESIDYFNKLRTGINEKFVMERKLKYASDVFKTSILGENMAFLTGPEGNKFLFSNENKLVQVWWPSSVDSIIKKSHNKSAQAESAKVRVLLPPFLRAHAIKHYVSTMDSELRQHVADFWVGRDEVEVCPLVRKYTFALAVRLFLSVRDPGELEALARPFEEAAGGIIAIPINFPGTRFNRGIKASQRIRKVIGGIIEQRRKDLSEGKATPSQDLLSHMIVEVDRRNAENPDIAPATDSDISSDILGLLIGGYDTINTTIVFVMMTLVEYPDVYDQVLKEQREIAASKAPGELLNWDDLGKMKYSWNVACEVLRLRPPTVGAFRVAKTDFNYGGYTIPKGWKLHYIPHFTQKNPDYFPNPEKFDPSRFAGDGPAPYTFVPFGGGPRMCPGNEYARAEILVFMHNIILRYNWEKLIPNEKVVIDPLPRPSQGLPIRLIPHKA
# [7] = target: T7, CYP716A86 (Centella asiatica, UniProt A0A1I9Q5Y3); assay: GC-MS of products in spent medium of engineered yeast; details: co-expressed GgBAS and MTR1; products erythrodiol, oleanolic aldehyde, oleanolic acid
# T7 construct: full-length ORF from cDNA library, expressed in Saccharomyces cerevisiae with GgBAS and M. truncatula reductase MTR1
# T7 sequence (A0A1I9Q5Y3 1-482): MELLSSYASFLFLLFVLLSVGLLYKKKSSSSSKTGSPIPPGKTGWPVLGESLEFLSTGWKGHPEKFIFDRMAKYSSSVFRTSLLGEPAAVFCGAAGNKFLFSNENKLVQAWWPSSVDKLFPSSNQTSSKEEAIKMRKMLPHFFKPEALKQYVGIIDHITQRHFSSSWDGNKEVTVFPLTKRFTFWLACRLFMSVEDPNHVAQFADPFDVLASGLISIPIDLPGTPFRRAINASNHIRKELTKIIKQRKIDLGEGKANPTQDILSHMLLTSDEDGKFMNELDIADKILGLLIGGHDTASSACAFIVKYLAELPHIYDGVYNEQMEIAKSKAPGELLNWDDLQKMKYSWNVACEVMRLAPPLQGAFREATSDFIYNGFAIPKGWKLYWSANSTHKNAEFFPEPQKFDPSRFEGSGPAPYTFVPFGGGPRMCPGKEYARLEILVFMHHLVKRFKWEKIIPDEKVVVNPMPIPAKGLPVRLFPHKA
# [8] = target: T8, CYP716A110 (Aquilegia coerulea, UniProt A0A1I9Q5Z9); assay: as above; details: co-expressed GgBAS and MTR1; products erythrodiol, oleanolic acid
# T8 construct: full-length ORF from cDNA, expressed in Saccharomyces cerevisiae with GgBAS and M. truncatula reductase MTR1
# T8 sequence (A0A1I9Q5Z9 1-480): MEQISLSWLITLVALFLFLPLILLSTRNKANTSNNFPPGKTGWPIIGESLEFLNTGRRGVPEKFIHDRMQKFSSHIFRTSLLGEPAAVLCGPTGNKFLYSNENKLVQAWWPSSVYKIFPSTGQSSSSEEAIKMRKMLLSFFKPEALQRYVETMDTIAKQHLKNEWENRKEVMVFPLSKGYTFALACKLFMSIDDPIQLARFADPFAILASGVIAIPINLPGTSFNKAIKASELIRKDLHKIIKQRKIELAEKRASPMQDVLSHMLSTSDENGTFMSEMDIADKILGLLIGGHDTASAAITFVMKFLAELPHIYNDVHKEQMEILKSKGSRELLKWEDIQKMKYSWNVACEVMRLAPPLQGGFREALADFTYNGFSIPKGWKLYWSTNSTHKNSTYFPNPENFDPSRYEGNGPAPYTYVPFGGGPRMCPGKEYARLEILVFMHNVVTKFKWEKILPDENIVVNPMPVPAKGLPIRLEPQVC
# T4 sequence (A0A1I9Q5Y4 entry or part of it): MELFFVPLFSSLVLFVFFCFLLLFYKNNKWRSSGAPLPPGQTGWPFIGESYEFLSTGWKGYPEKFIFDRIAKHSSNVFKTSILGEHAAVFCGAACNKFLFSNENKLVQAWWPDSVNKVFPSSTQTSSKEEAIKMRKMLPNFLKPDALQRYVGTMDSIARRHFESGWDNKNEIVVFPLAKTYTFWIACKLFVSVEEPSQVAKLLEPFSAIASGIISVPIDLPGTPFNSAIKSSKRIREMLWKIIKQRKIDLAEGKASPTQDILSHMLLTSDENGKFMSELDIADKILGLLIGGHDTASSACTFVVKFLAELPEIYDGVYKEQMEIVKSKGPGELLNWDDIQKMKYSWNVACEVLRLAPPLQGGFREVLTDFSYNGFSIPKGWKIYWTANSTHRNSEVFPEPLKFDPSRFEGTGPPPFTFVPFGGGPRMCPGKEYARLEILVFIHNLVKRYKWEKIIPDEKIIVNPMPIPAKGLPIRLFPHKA
compound,measurement,setting,value
CC(C)=CCC[C@@H](C)[C@H]1CC[C@@]2(C)[C@@H]3CC[C@H]4C(C)(C)[C@@H](O)CC[C@@]45C[C@@]35CC[C@]12C [cycloartenol],GC-MS of products in spent medium of engineered yeast,[1],dependent on both SlCAS and CYP716A113v1
CC1(C)CC[C@]2(C(=O)O)CC[C@]3(C)C(=CC[C@@H]4[C@@]5(C)CC[C@H](O)C(C)(C)[C@@H]5CC[C@]43C)[C@@H]2C1 [oleanolic acid],GC-MS of products in spent medium of engineered yeast,[2],CYP716C11 and CYP716E41 converted oleanolic acid to maslinic acid
same,GC-MS of products in spent medium of engineered yeast,[3],CYP716C11 and CYP716E41 converted oleanolic acid to maslinic acid
C[C@H]1[C@H](C)CC[C@]2(C)CC[C@]3(C)C(=CC[C@@H]4[C@@]5(C)CC[C@H](O)C(C)(C)[C@@H]5CC[C@]43C)[C@H]12 [α-amyrin],GC-MS of products in spent medium of engineered yeast,"[4]; co-expressed CaDDS and MTR1 (with CYP716E41 or CYP716C11), product ursolic acid","CYP716A83, CYP716C11 and CYP716E41 can function on both oleanane and ursane backbones"
CC1(C)CC[C@]2(C)CC[C@]3(C)C(=CC[C@@H]4[C@@]5(C)CC[C@H](O)C(C)(C)[C@@H]5CC[C@]43C)[C@@H]2C1 [β-amyrin],GC-MS of products in spent medium of engineered yeast,[5],CYP716A140-expressing yeast showed three new peaks corresponding to C-28 oxidation
same,GC-MS of engineered yeast medium; product NMR,[6],CYP716A141 appears to be a multifunctional β-amyrin oxidase
same,GC-MS of products in spent medium of engineered yeast,[7],CYP716A83 and CYP716A86 catalyse the three-step oxidation of β-amyrin at the C-28 position
same,GC-MS of products in spent medium of engineered yeast,[8],CYP716A110 revealed new peaks corresponding to the erythrodiol and oleanolic acid standards
same,GC-MS of products in spent medium of engineered yeast,"[4]; co-expressed GgBAS and MTR1, in vivo, products erythrodiol, oleanolic aldehyde, oleanolic acid",CYP716A83 and CYP716A86 catalyse the three-step oxidation of β-amyrin at the C-28 position
